Measurements reported in patent US10407415B2, “Dihydrate of benzothiophene compound or of a salt thereof, and process for producing the same” (OTSUKA PHARMACEUTICAL CO., LTD., priority 2012, dated 2019).

Legend:
[1] = Measurement of drug residue in muscle; type: in vivo; settings: rat, injectable preparation 100 mg/mL (finely ground, mean particle diameter 3.5 μm) intramuscularly injected at 25 mg/kg, dissected 56 days after the injection
Experimental: The dihydrate of the present invention (150 mg) was dispersed to the suspension medium (1 mL) described below, and pulverized using 5 mm zirconia beads (1.2 g, pulverization time: 30 min) while being stirred with a stirrer. The suspension medium used for pulverization was a solution containing 0.832% (w/v) sodium carboxymethylcellulose (CMC-Na), 4.16% (w/v) mannitol, and 0.074% (w/v) sodium dihydrogenphosphatemonohydrate. The pH thereof was adjusted to 7.0 by adding an appropriate amount of sodium hydroxide. The concentration of each preparation was adjusted to 100 mg/mL using this medium.
An anhydride was subjected to pulverization in the same manner to obtain an anhydride (finely ground product) having a mean particle diameter of 3.5 μm. The mean particle diameter was measured using a laser diffraction particle size analyzer (SALD-3000) or SALD-3100, manufactured by Shimadzu Corporation).
Injectable preparations each containing the dihydrate of the present invention (finely ground product, mean particle diameter: 3.5 μm) or an anhydride (finely ground product, mean particle diameter: 3.5 μm) were obtained by the procedure described above.
Each injectable preparation thus obtained was intramuscularly injected into a rat in a dosage of 25 mg/kg. Each injectable preparation was injected into three rats.

[2] = Pharmacokinetics test using a dog (intramuscular injectable preparation); type: in vivo; settings: 10 mg/kg calculated as the anhydride
Experimental: Injectable preparations containing the dihydrate of the present invention as an active ingredient were formulated as shown in Table 3. Each of the injectable preparations was injected into the thigh muscle of a dog in such a dosage that 10 mg/kg of active ingredient calculated as the anhydride of the present invention was contained. FIG. 14 is a graph showing the mean blood concentration-time profile after the injection. As is clear from FIG. 14, the sustained release property can be stably maintained for more than 30 days from the injection.

| SMILES | The number having residue in muscle (Number having residue/Total) ([1]; dihydrate) | time for which the sustained release property is stably maintained (mean blood concentration-time profile, FIG. 14) ([2]; injected into the thigh muscle, Table 3 formulation) | Stimulation at the injection site ([2]; thigh muscle injection, observed 7 days after the injection) | The number having residue in muscle (Number having residue/Total) [1] |
| --- | --- | --- | --- | --- |
| O=c1ccc2ccc(OCCCCN3CCN(c4cccc5sccc45)CC3)cc2[nH]1 [Dihydrate, 7-[4-(4-benzo[b]thiophen-4-yl-piperazin-1-yl)butoxy]-1H-quinolin-2-one dihydrate] | 3/3 | more than 30 days | low | – |
| O=c1ccc2ccc(OCCCCN3CCN(c4cccc5sccc45)CC3)cc2[nH]1 [Anhydride, 7-[4-(4-benzo[b]thiophen-4-yl-piperazin-1-yl)butoxy]-1H-quinolin-2-one anhydride, reference compound] | – | – | – | 0/3 |
